Data published in BindingDB's records for patent US10550105 (Ribon Therapeutics, 2020).

target: T1, Protein mono-ADP-ribosyltransferase TIPARP (Homo sapiens, UniProt Q7Z3E1); assay: Enzymatic Assay for Inhibition of PARP7
T1 sequence (Q7Z3E1 whole entry): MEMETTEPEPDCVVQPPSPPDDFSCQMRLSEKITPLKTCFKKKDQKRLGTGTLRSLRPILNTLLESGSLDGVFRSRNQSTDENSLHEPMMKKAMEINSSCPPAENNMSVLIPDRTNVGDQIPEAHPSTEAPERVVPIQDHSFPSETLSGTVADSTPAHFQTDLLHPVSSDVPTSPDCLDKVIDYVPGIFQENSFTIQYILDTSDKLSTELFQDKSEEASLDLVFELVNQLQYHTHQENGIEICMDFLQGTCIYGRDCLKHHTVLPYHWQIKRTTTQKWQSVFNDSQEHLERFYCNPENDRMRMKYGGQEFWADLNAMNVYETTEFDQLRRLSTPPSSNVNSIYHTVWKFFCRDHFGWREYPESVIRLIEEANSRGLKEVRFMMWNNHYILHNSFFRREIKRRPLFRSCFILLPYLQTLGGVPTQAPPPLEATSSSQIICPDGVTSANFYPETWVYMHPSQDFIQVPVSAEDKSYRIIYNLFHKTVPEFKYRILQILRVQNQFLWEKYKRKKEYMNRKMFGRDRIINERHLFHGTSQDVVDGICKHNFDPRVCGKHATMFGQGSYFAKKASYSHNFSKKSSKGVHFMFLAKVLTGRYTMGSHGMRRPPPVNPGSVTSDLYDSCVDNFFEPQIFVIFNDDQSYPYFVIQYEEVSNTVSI
Procedure: Displacement of Probe A, a biotinylated probe binding to the TIPARP active site, was measured using a time-resolved fluorescence energy transfer (TR-FRET) assay. 20 nL of a dose response curve of each test compound was spotted in black 384-well polystyrene proxiplates (Perkin Elmer) using a Mosquito (TTP Labtech). Reactions were performed in a 8 μL volume by adding 6 μL of TIPARP and Probe A in assay buffer (20 mM HEPES pH=8, 100 mM NaCl, 0.1% bovine serum albumin, 2 mM DTT and 0.002% Tween20), incubating with test compound at 25° C. for 30 min, then adding 2 μL of ULight-anti 6×His and LANCE Eu-W1024 labeled streptavidin (Perkin Elmer). The final concentrations of TIPARP and Probe A were 6 nM and 2 nM, respectively. […] The Hill Coefficient is normally allowed to float but may also be fixed at 1 in a 3-parameter fit. Y is the % inhibition and x is the compound concentration.

IC50 | Structure (SMILES)
in the range around 550 nM | C[C@@H](OCCC(=O)N1CCN(c2ccc(C#N)cn2)CC1)[C@@H]1CCCN1c1cn[nH]c(=O)c1C(F)(F)F [US10550105, Example 140B]
< 100 nM | O=C(c1cncc(OCC2c3ccccc3CN2c2cn[nH]c(=O)c2C(F)(F)F)c1)N1CCn2ncnc2C1 (stereo not given) [US10550105, Example 398]

More lines, now with the values behind:

Structure (SMILES) | IC50
N#Cc1ccc(N2CCN(C(=O)/C=C\COC[C@H]3c4ccccc4CN3c3cn[nH]c(=O)c3C(F)(F)F)CC2)nc1 [US10550105, Example 79C] | < 100 nM
N#Cc1ccc(N2CCN(C(=O)/C=C\COC[C@@H]3c4ccccc4CN3c3cn[nH]c(=O)c3C(F)(F)F)CC2)nc1 [US10550105, Example 79D] | < 100 nM
O=C(c1cncc(OC[C@H]2c3ccccc3CN2c2cn[nH]c(=O)c2C(F)(F)F)c1)N1CCn2c(nnc2C(F)(F)F)C1 [US10550105, Example 372] | > 1000 nM
